Laboratory results from US10106782B2, “High-titer HCV full-length genotype 2B infectious cell culture systems and applications thereof” (Hvidovre Hospital, priority 2013, dated 2018).
Entries after “also recorded” stand apart in the source; their conditions may differ.

Legend:
[1] = tested on: genotype 1a (strain TN) full-length virus; assay: Antiviral treatment of HCV infected Huh7.5 cultures, high throughput assay, virus TN; format: cell-based, hepatitis C virus; details: for inhibition of virus (concentration-response): TN(1a) in Huh7.5 cells, non-cytotoxic drug concentrations; for EC50 / sensitivity of virus, stated in words: TN(1a), numbers only in FIG. 11
Procedure: (§1) HCV infected cultures were treated with NS3 Protease, NS5A, and NS5B polymerase inhibitors (purchased from Acme Bioscience) in a high throughput assay. Immunostaining of fixed 96-well plates was performed using anti-core C7- and anti-NS5A 9E10 at dilutions 1/450 and 1/1000, respectively.
(§2) Concentration-response curves and EC50 values were calculated. The non-cytotoxic dose ranges for all drugs were determined with a cytotoxicity assay (CellTiter 96 AQueous One Solution Cell Proliferation Assay, Promega).
(§3) HCV genetic divergence influences the sensitivity to lead direct acting antivirals. Our developed full-length culture systems permit the study of frontline HCV DAAs in the context of the complete HCV life cycle. Thus, we determined the efficacy of DAAs targeting different viral proteins against genotype 1a (strain TN), 2a (strain J6 and recombinant J6core-NS2/JFH18, referred to as JFH1, since it has the JFH1 protease, NS5A and NS5B), and 2b (strains DH8, J8, and DH10). For 2b viruses we used 3rd passage DH8_LSG, 5th passage J8cc, and 3rd passage DH10_LSG (FIGS. 6-10).

[2] = tested on: 2a recombinant J6core-NS2/JFH1, referred to as JFH1; assay: Antiviral treatment of HCV infected Huh7.5 cultures, high throughput assay, virus JFH1; format: cell-based, hepatitis C virus; details: for inhibition of virus (concentration-response): JFH1(2a) in Huh7.5 cells, non-cytotoxic drug concentrations
Procedure: as §1, §2, §3

[3] = tested on: genotype 2a (strain J6) full-length virus; assay: Antiviral treatment of HCV infected Huh7.5 cultures, high throughput assay, virus J6; format: cell-based, hepatitis C virus; details: for inhibition of virus (concentration-response): J6(2a) in Huh7.5 cells, non-cytotoxic drug concentrations; for EC50 / sensitivity of virus, stated in words: J6(2a), numbers only in FIG. 11
Procedure: as §1, §2, §3

[4] = tested on: genotype 2b strain DH8 (3rd passage DH8_LSG); assay: Antiviral treatment of HCV infected Huh7.5 cultures, high throughput assay, virus DH8; format: cell-based, hepatitis C virus; details: DH8(2b) in Huh7.5 cells; non-cytotoxic drug concentrations
Procedure: as §1, §2, §3

[5] = tested on: genotype 2b strain J8 (5th passage J8cc); assay: Antiviral treatment of HCV infected Huh7.5 cultures, high throughput assay, virus J8; format: cell-based, hepatitis C virus; details: for inhibition of virus (concentration-response): J8(2b) in Huh7.5 cells, non-cytotoxic drug concentrations
Procedure: as §1, §2, §3

[6] = tested on: genotype 2b strain DH10 (3rd passage DH10_LSG); assay: Antiviral treatment of HCV infected Huh7.5 cultures, high throughput assay, virus DH10; format: cell-based, hepatitis C virus; details: DH10(2b) in Huh7.5 cells; non-cytotoxic drug concentrations
Procedure: as §1, §2, §3

[7] = tested on: Huh7.5 cells; assay: Transfection of Huh7.5 cells with RNA transcripts of full-length HCV recombinants; format: cell-based; details: for HCV positive cells detected / HCV infectivity titers: after transfection; for spread of infection (≥80% HCV-antigen positive cells): day after transfection
Procedure: (§4) Transfection and passage of recombinant full-length HCV in Huh7.5 cells. Transfections with RNA transcripts were performed as reported. For viral passage, cell free supernatants were incubated with […] Huh7.5 cells overnight. Cultures were split every 2-3 days and progression of infection was monitored by immunostaining on cells seeded in slides and co-stained with primary antibodies anti-core C7-50 (Enzo Life Sciences) and anti-NS5A 9E108, at dilution 1/25010. Infectivity titers expressed as Log 10 Focus Forming Units (FFU)/mL were determined as described. To improve staining, we used a mixture of anti-core C7- and anti-NS5A 9E10 at dilutions 1/450 and 1/1000, respectively. HCV RNA titers (IU/mL) on passage supernatants with peak infectivity titers were determined as previously described.

[8] = tested on: Huh7.5 cells; assay: Viral passage of recombinant full-length HCV to naive Huh7.5 cells; format: cell-based
Procedure: as §4

Compound | inhibition of virus (concentration-response) [1] | inhibition of virus (concentration-response) [2] | inhibition of virus (concentration-response) [3] | inhibition of virus (concentration-response) [4] | inhibition of virus (concentration-response) [5] | inhibition of virus (concentration-response) [6] | HCV infectivity titers [7] | spread of infection (≥80% HCV-antigen positive cells) [7] [days] | also measured
Cn1c(C2(NC(=O)c3ccc4c(C5CCCC5)c(-c5ncc(Br)cn5)n(C)c4c3)CCC2)nc2ccc(/C=C/C(=O)O)cc21 [BI207127] | inhibit all viruses in a dose dependent manner | inhibit all viruses in a dose dependent manner | inhibit all viruses in a dose dependent manner | inhibit all viruses in a dose dependent manner | inhibit all viruses in a dose dependent manner | inhibit all viruses in a dose dependent manner |  |  | EC50 / sensitivity of virus, stated in words [1]: most sensitive virus
CCc1cc(CC[C@]2(C3CCCC3)CC(O)=C(Cc3nc4nc(C)cc(C)n4n3)C(=O)O2)cc(CC)n1 [Filibuvir] | inhibited TN(1a) in a dose dependent manner | no or very limited inhibition; also recorded: not inhibited | no or very limited inhibition; also recorded: not inhibited | no or very limited inhibition; also recorded: not inhibited | no or very limited inhibition; also recorded: not inhibited | no or very limited inhibition; also recorded: not inhibited |  |  | 
C=C[C@@H]1C[C@]1(NC(=O)[C@@H]1C[C@@H]2CN1C(=O)[C@H](C(C)(C)C)NC(=O)O[C@@H]1C[C@H]1CCCCCc1nc3ccc(OC)cc3nc1O2)C(=O)NS(=O)(=O)C1CC1 [MK-5172] |  |  |  |  |  |  |  |  | EC50 / sensitivity of virus, stated in words [1]: most sensitive viruses; EC50 / sensitivity of virus, stated in words ([2]; JFH1(2a), numbers only in FIG. 11): most sensitive viruses
CC(C)C(=O)OC[C@H]1O[C@@H](n2ccc(N)nc2=O)[C@](C)(F)[C@@H]1OC(=O)C(C)C [Mericitabine] | inhibited 1a, 2a, and 2b viruses in a dose-dependent manner | inhibited 1a, 2a, and 2b viruses in a dose-dependent manner | inhibited 1a, 2a, and 2b viruses in a dose-dependent manner | inhibited 1a, 2a, and 2b viruses in a dose-dependent manner | inhibited 1a, 2a, and 2b viruses in a dose-dependent manner | inhibited 1a, 2a, and 2b viruses in a dose-dependent manner |  |  | EC50 / sensitivity of virus, stated in words [3]: most sensitive virus
COc1ccc2c(O[C@@H]3C[C@H]4C(=O)N[C@]5(C(=O)NS(=O)(=O)C6CC6)C[C@H]5/C=C\CCCCN(C)C(=O)[C@@H]4C3)cc(-c3nc(C(C)C)cs3)nc2c1C [Simeprevir] |  |  |  |  |  |  |  |  | EC50 / sensitivity of virus, stated in words ([5]; J8(2b), numbers only in FIG. 11): lower EC50
CC(C)OC(=O)[C@H](C)N[P@](=O)(OC[C@H]1O[C@@H](n2ccc(=O)[nH]c2=O)[C@](C)(F)[C@@H]1O)Oc1ccccc1 [Sofosbuvir] | inhibited 1a, 2a, and 2b viruses in a dose-dependent manner | inhibited 1a, 2a, and 2b viruses in a dose-dependent manner | inhibited 1a, 2a, and 2b viruses in a dose-dependent manner | inhibited 1a, 2a, and 2b viruses in a dose-dependent manner | inhibited 1a, 2a, and 2b viruses in a dose-dependent manner | inhibited 1a, 2a, and 2b viruses in a dose-dependent manner |  |  | EC50 / sensitivity of virus, stated in words [3]: most sensitive virus
CC(C)(C)C#Cc1cc(N(C(=O)[C@H]2CC[C@H](C)CC2)[C@H]2CC[C@H](O)CC2)c(C(=O)O)s1 [VX-222] | inhibited TN(1a) in a dose dependent manner | no or very limited inhibition; also recorded: not inhibited | no or very limited inhibition; also recorded: not inhibited | no or very limited inhibition; also recorded: not inhibited | no or very limited inhibition; also recorded: not inhibited | no or very limited inhibition; also recorded: not inhibited |  |  | EC50 / sensitivity of virus, stated in words [1]: most potent inhibitor
DH8CF: full-length HCV genotype 2b consensus clone of strain DH8, SEQ ID NO 1, KF420335 |  |  |  |  |  |  |  |  | HCV positive cells detected [7]: No HCV positive cells were detected
DH8_LSG/L758S/A1790T/V1951A/I2439T: DH8 full-length recombinant named DH8cc, SEQ ID NO 8, KF420336 |  |  |  |  |  |  | 4.1 Log 10 FFU/mL | 6 | HCV infectivity titers ([8]; 1st passage): 4.4 Log 10 FFU/mL; HCV infectivity titers ([8]; 2nd passage): 4.3 Log 10 FFU/mL
DH8_LSG/L884P/V1951A/I2440T/L3021F: efficient full-length infectious DH8 recombinant, SEQ ID NO 7, KF420337 |  |  |  |  |  |  | 3.8 Log 10 FFU/mL | 6 | HCV infectivity titers ([8]; 2nd passage): 3.9 Log 10 FFU/mL
DH8_LSG: DH8CF containing LSG mutations F1468L/A1676S/D3001G, SEQ ID NO:2 |  |  |  |  |  |  | 3.1-3.9 Log 10 FFU/mL | 36 to 53 | HCV positive cells detected [7]: ≥ 1 days; HCV infectivity titers ([8]; 1st passage): 3.1-4.2 Log 10 FFU/mL; spread of infection ([8]; 1st viral passage): 5 to 8 days; HCV infectivity titers ([8]; 3rd passage of transfection 1 culture A): 4.7 Log 10 FFU/mL
J8_LSG/L758S/A1790T/V1951A/I2440T: efficient J8 virus with authentic NS3 protease, SEQ ID NO 15, KF420339 |  |  |  |  |  |  | 3.8 Log 10 FFU/mL | 5 | 
J8cc/M292L/L612M/G1154A/N1217Y/Q1763R/I2440T: J8 cell culture, high titer recombinant, SEQ ID NO 14, KF420338 |  |  |  |  |  |  | 4.7 Log 10 FFU/mL | 3 | 
